{"source": "patent US10597388B2", "about": "“Pyridazinone herbicides” (FMC CORPORATION, priority 2014, dated 2020)", "experiment_in_all_cases": "Test E greenhouse herbicide test, pre- and postemergence", "assay_type_in_all_cases": "in vivo", "key": {"[1]": {"tested_on": "nutsedge, yellow (yellow nutsedge, Cyperus esculentus)", "conditions": "Preemergence", "in_short": "(§1)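 Visual rating vs untreated controls, 0 = no effect, 100 = complete control, after 14–21 d greenhouse. Pre: seeded silt loam treated with surfactant-containing solvent formulation. Post: 1–4-leaf plants (2–18 cm) in peat/vermiculite medium.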"}, "[2]": {"tested_on": "surinam grass (Brachiaria decumbens)", "conditions": "Preemergence", "in_short": "as §1"}, "[3]": {"tested_on": "crabgrass, Brazilian (Brazilian crabgrass, Digitaria horizontalis)", "in_short": "as §1"}, "[4]": {"tested_on": "johnsongrass (Sorghum halepense)", "conditions": "Preemergence", "in_short": "as §1"}, "[5]": {"tested_on": "Italian ryegrass (Lolium multiflorum)", "in_short": "as §1"}, "[6]": {"tested_on": "ragweed (common ragweed, Ambrosia elatior)", "in_short": "as §1"}, "[7]": {"tested_on": "velvetleaf (Abutilon theophrasti)", "conditions": "Preemergence", "in_short": "as §1"}, "[8]": {"tested_on": "kochia (Kochia scoparia)", "in_short": "as §1"}, "[9]": {"tested_on": "goosegrass (Eleusine indica)", "conditions": "Preemergence", "in_short": "as §1"}, "[10]": {"tested_on": "foxtail, green (green foxtail, Setaria viridis)", "conditions": "Preemergence", "in_short": "as §1"}, "[11]": {"tested_on": "nightshade (eastern black nightshade, Solanum ptycanthum)", "conditions": "Preemergence", "in_short": "as §1"}, "[12]": {"tested_on": "pigweed, palmer (palmer pigweed, Amaranthus palmeri)", "in_short": "as §1"}, "[13]": {"tested_on": "corn (Zea mays)", "in_short": "as §1"}, "[14]": {"tested_on": "waterhemp (common waterhemp, Amaranthus rudis)", "in_short": "as §1"}, "[15]": {"tested_on": "sandbur (southem sandbur, Cenchrus echinatus)", "in_short": "as §1"}, "[16]": {"tested_on": "crabgrass, large (large crabgrass, Digitaria sanguinalis)", "conditions": "Preemergence", "in_short": "as §1"}, "[17]": {"tested_on": "barnyardgrass (Echinochloa crus-galli)", "in_short": "as §1"}, "[18]": {"conditions": "125 g ai/ha, scale 0 to 100 (0 no effect, 100 complete control)"}, "[19]": {"conditions": "16 g ai/ha, scale 0 to 100, 0 no effect, 100 complete control"}, "[20]": {"conditions": "31 g ai/ha, scale 0 to 100, 0 no effect, 100 complete control"}, "[21]": {"conditions": "62 g ai/ha, Postemergence, scale 0 to 100 (0 no effect, 100 complete control)"}, "[22]": {"conditions": "62 g ai/ha, Preemergence, scale 0 to 100 (0 no effect, 100 complete control)"}, "[23]": {"conditions": "125 g ai/ha, Postemergence, scale 0 to 100 (0 no effect, 100 complete control)"}, "[24]": {"conditions": "125 g ai/ha, Preemergence, scale 0 to 100 (0 no effect, 100 complete control)"}, "[25]": {"conditions": "Postemergence, 16 g ai/ha, visual, scale 0 no effect to 100 complete control"}, "[26]": {"conditions": "Postemergence, 31 g ai/ha, visual, scale 0 no effect to 100 complete control"}, "[27]": {"conditions": "Preemergence, 16 g ai/ha, scale 0 to 100, 0 no effect, 100 complete control"}, "[28]": {"conditions": "Preemergence, 31 g ai/ha, scale 0 to 100, 0 no effect, 100 complete control"}, "[29]": {"conditions": "62 g ai/ha, scale 0 to 100 (0 no effect, 100 complete control)"}}}
{"smiles": "CCC(=O)Oc1c(C)nn(C)c(=O)c1-c1c(C)sc2ccc(Cl)cc12", "note": "[Compound 109]", "values": [{"measurement": "Plant response rating, Nutsedge, Yellow", "setting": "[1]; [18]", "result": 40}, {"measurement": "Plant response rating, Nutsedge, Yellow", "setting": "[1]; [19]", "result": 0}, {"measurement": "Plant response rating, Nutsedge, Yellow", "setting": "[1]; [20]", "result": 0}, {"measurement": "Plant response rating, Surinam Grass", "setting": "[2]; [18]", "result": 40}, {"measurement": "Plant response rating, Surinam Grass", "setting": "[2]; [19]", "result": 0}, {"measurement": "Plant response rating, Surinam Grass", "setting": "[2]; [20]", "result": 30}, {"measurement": "Plant response rating, Crabgrass, Brazil", "setting": "[3]; [21]", "result": 30}, {"measurement": "Plant response rating, Crabgrass, Brazil", "setting": "[3]; [22]", "result": 40}, {"measurement": "Plant response rating, Crabgrass, Brazil", "setting": "[3]; [23]", "result": 50}, {"measurement": "Plant response rating, Crabgrass, Brazil", "setting": "[3]; [24]", "result": 70}, {"measurement": "Plant response rating, Crabgrass, Brazil", "setting": "[3]; [25]", "result": 10}, {"measurement": "Plant response rating, Crabgrass, Brazil", "setting": "[3]; [26]", "result": 40}, {"measurement": "Plant response rating, Crabgrass, Brazil", "setting": "[3]; [27]", "result": 70}, {"measurement": "Plant response rating, Crabgrass, Brazil", "setting": "[3]; [28]", "result": 60}, {"measurement": "Plant response rating, Johnsongrass", "setting": "[4]; [18]", "result": 40}, {"measurement": "Plant response rating, Johnsongrass", "setting": "[4]; [19]", "result": 0}, {"measurement": "Plant response rating, Johnsongrass", "setting": "[4]; [20]", "result": 0}, {"measurement": "Plant response rating, Ryegrass, Italian", "setting": "[5]; [21]", "result": 90}, {"measurement": "Plant response rating, Ryegrass, Italian", "setting": "[5]; [23]", "result": 85}, {"measurement": "Plant response rating, Ryegrass, Italian", "setting": "[5]; [24]", "result": 98}, {"measurement": "Plant response rating, Ryegrass, Italian", "setting": "[5]; [25]", "result": 50}, {"measurement": "Plant response rating, Ryegrass, Italian", "setting": "[5]; [26]", "result": 75}, {"measurement": "Plant response rating, Ryegrass, Italian", "setting": "[5]; [27]", "result": 60}, {"measurement": "Plant response rating, Ryegrass, Italian", "setting": "[5]; [28]", "result": 75}, {"measurement": "Plant response rating, Ragweed", "setting": "[6]; [21]", "result": 90}, {"measurement": "Plant response rating, Ragweed", "setting": "[6]; [23]", "result": 95}, {"measurement": "Plant response rating, Ragweed", "setting": "[6]; [24]", "result": 100}, {"measurement": "Plant response rating, Ragweed", "setting": "[6]; [25]", "result": 80}, {"measurement": "Plant response rating, Ragweed", "setting": "[6]; [26]", "result": 85}, {"measurement": "Plant response rating, Ragweed", "setting": "[6]; [27]", "result": 0}, {"measurement": "Plant response rating, Ragweed", "setting": "[6]; [28]", "result": 5}, {"measurement": "Plant response rating, Velvetleaf", "setting": "[7]; [18]", "result": 65}, {"measurement": "Plant response rating, Velvetleaf", "setting": "[7]; [19]", "result": 0}, {"measurement": "Plant response rating, Velvetleaf", "setting": "[7]; [20]", "result": 0}, {"measurement": "Plant response rating, Kochia", "setting": "[8]; [21]", "result": 95}, {"measurement": "Plant response rating, Kochia", "setting": "[8]; [23]", "result": 100}, {"measurement": "Plant response rating, Kochia", "setting": "[8]; [24]", "result": 100}, {"measurement": "Plant response rating, Kochia", "setting": "[8]; [25]", "result": 80}, {"measurement": "Plant response rating, Kochia", "setting": "[8]; [26]", "result": 95}, {"measurement": "Plant response rating, Kochia", "setting": "[8]; [27]", "result": 0}, {"measurement": "Plant response rating, Kochia", "setting": "[8]; [28]", "result": 10}, {"measurement": "Plant response rating, Goosegrass", "setting": "[9]; [29]", "result": 25}, {"measurement": "Plant response rating, Goosegrass", "setting": "[9]; [18]", "result": 50}, {"measurement": "Plant response rating, Goosegrass", "setting": "[9]; [19]", "result": 0}, {"measurement": "Plant response rating, Goosegrass", "setting": "[9]; [20]", "result": 20}, {"measurement": "Plant response rating, Foxtail, Green", "setting": "[10]; [29]", "result": 40}, {"measurement": "Plant response rating, Foxtail, Green", "setting": "[10]; [18]", "result": 60}, {"measurement": "Plant response rating, Foxtail, Green", "setting": "[10]; [19]", "result": 0}, {"measurement": "Plant response rating, Foxtail, Green", "setting": "[10]; [20]", "result": 0}, {"measurement": "Plant response rating, Nightshade", "setting": "[11]; [18]", "result": 98}, {"measurement": "Plant response rating, Nightshade", "setting": "[11]; [19]", "result": 25}, {"measurement": "Plant response rating, Nightshade", "setting": "[11]; [20]", "result": 65}, {"measurement": "Plant response rating, Pigweed, Palmer", "setting": "[12]; [21]", "result": 65}, {"measurement": "Plant response rating, Pigweed, Palmer", "setting": "[12]; [23]", "result": 100}, {"measurement": "Plant response rating, Pigweed, Palmer", "setting": "[12]; [24]", "result": 85}, {"measurement": "Plant response rating, Pigweed, Palmer", "setting": "[12]; [25]", "result": 60}, {"measurement": "Plant response rating, Pigweed, Palmer", "setting": "[12]; [26]", "result": 50}, {"measurement": "Plant response rating, Pigweed, Palmer", "setting": "[12]; [27]", "result": 0}, {"measurement": "Plant response rating, Pigweed, Palmer", "setting": "[12]; [28]", "result": 20}, {"measurement": "Plant response rating, Corn", "setting": "[13]; [21]", "result": 10}, {"measurement": "Plant response rating, Corn", "setting": "[13]; [22]", "result": 0}, {"measurement": "Plant response rating, Corn", "setting": "[13]; [23]", "result": 20}, {"measurement": "Plant response rating, Corn", "setting": "[13]; [24]", "result": 0}, {"measurement": "Plant response rating, Corn", "setting": "[13]; [25]", "result": 0}, {"measurement": "Plant response rating, Corn", "setting": "[13]; [26]", "result": 0}, {"measurement": "Plant response rating, Corn", "setting": "[13]; [27]", "result": 0}, {"measurement": "Plant response rating, Corn", "setting": "[13]; [28]", "result": 0}, {"measurement": "Plant response rating, Waterhemp", "setting": "[14]; [23]", "result": 90}, {"measurement": "Plant response rating, Waterhemp", "setting": "[14]; [24]", "result": 98}, {"measurement": "Plant response rating, Waterhemp", "setting": "[14]; [25]", "result": 60}, {"measurement": "Plant response rating, Waterhemp", "setting": "[14]; [26]", "result": 75}, {"measurement": "Plant response rating, Waterhemp", "setting": "[14]; [27]", "result": 0}, {"measurement": "Plant response rating, Waterhemp", "setting": "[14]; [28]", "result": 0}, {"measurement": "Plant response rating, Sandbur", "setting": "[15]; [23]", "result": 70}, {"measurement": "Plant response rating, Sandbur", "setting": "[15]; [24]", "result": 75}, {"measurement": "Plant response rating, Sandbur", "setting": "[15]; [25]", "result": 60}, {"measurement": "Plant response rating, Sandbur", "setting": "[15]; [26]", "result": 40}, {"measurement": "Plant response rating, Sandbur", "setting": "[15]; [27]", "result": 0}, {"measurement": "Plant response rating, Sandbur", "setting": "[15]; [28]", "result": 40}, {"measurement": "Plant response rating, Crabgrass, Large", "setting": "[16]; [29]", "result": 40}, {"measurement": "Plant response rating, Crabgrass, Large", "setting": "[16]; [18]", "result": 35}, {"measurement": "Plant response rating, Crabgrass, Large", "setting": "[16]; [19]", "result": 0}, {"measurement": "Plant response rating, Crabgrass, Large", "setting": "[16]; [20]", "result": 0}, {"measurement": "Plant response rating, Barnyardgrass", "setting": "[17]; [21]", "result": 30}, {"measurement": "Plant response rating, Barnyardgrass", "setting": "[17]; [22]", "result": 10}, {"measurement": "Plant response rating, Barnyardgrass", "setting": "[17]; [23]", "result": 40}, {"measurement": "Plant response rating, Barnyardgrass", "setting": "[17]; [24]", "result": 25}, {"measurement": "Plant response rating, Barnyardgrass", "setting": "[17]; [25]", "result": 25}, {"measurement": "Plant response rating, Barnyardgrass", "setting": "[17]; [26]", "result": 30}, {"measurement": "Plant response rating, Barnyardgrass", "setting": "[17]; [27]", "result": 0}, {"measurement": "Plant response rating, Barnyardgrass", "setting": "[17]; [28]", "result": 0}]}
